The structures appear in SMILES notation.

One test has as its target T1, human ATGL (Homo sapiens, UniProt Q96AD5).
T1 construct: made in house; host or cells: Expi cells (lysate, not purified)
T1 sequence (Q96AD5 1-504): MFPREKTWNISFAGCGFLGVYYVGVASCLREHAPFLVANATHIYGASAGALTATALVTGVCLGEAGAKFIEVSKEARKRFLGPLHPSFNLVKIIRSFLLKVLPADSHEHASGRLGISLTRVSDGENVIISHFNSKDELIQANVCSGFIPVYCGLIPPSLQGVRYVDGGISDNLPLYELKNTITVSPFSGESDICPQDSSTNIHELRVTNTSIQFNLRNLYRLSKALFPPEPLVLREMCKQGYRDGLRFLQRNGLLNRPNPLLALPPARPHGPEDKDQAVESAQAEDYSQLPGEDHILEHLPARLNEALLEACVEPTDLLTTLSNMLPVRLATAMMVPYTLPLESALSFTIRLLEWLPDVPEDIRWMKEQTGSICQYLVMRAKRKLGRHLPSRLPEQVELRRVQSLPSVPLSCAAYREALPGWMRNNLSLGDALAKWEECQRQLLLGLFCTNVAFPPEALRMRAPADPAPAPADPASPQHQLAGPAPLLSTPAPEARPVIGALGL
In words: TG hydrolase activity, Expi cell lysates expressing human ATGL + CGI-58, radiolabelled triolein. It counts as biochemical. The settings on record: Example 237; read-out: Inhibition of human ATGL − IC50. As to the method:
Triglyceride (TG) hydrolase activity was measured as previously described (Schweiger M et al., Methods in Enzymology, 2014, 538:171-93). In brief, TG hydrolase activity was determined by adding recombinant purified CGI-58 to Expi cell lysates expressing human ATGL. For determination of cross-species reactivity Expi lysates expressing ATGL from different model organisms (e.g. mouse, rat, rhesus monkey, goat, etc.) were used. Samples were incubated with DMSO (carrier) or increasing concentrations of ATGL inhibitors dissolved in DMSO. TG substrate was prepared by emulsifying 330 μM radiolabelled triolein (40,000 c.p.m./nmol) and 45 μM phosphatidylcholine/phosphatidylinositol (3:1) in 100 mM potassium phosphate buffer (pH 7.0) by sonication and adjusting to 5% essentially FA-free BSA. TG substrate was added to the reaction mixture and incubated for 1 h at 37° C. in the water bath. The reaction was terminated by adding methanol/chloroform/heptane (10:9:7) and 0.1 M potassium carbonate with 0.1 M boric acid (pH 10.5). After centrifugation at 800 g for 15 min the radioactivity in the upper phase was determined by liquid scintillation counting and the rate of FA hydrolysis was calculated. IC50 values were determined as inhibitor concentration capable of inhibiting TG hydrolase activity by 50% as compared to DMSO control. Samples were measured as duplicates. The determination of IC50 values for human ATGL is illustrated in FIG. 1.
In the case of `COCOc1ccc(-c2cccc(C(=O)OC(C)C)n2)cc1` [Example 13], the half-maximal inhibitory concentration (IC50) – broadly, the concentration at which inhibition is half-maximal – is 8 µM.

As for `CCOC(=O)c1cccc(-c2ccc(C(C)OC)cc2)n1` (stereo not drawn) [Example 45], the concentration for half-maximal inhibition (IC50) stood at 10 µM.

With `CCCCc1ccc(-c2cc(OC)cc(C(=O)OC(C)C)n2)cc1` [Example 57], the half-inhibitory concentration (IC50) came out at 2 µM.

`COc1cc(C(=O)OC(C)C)nc(-c2ccc(C(C)OC)cc2)c1` (stereo not drawn) [Example 62]: the IC50 came to 2 µM.

`CC(C)OC(=O)c1cccc(OCCc2ccccc2)n1` [Example 91]: the IC50 worked out at 50 µM.

Consider `CCOC(=O)c1cccc(-c2ccc(COC(C)=O)cc2)n1` [Example 93], for which the half-inhibitory concentration (IC50) is 20 µM.

Turning to `CC(C)OC(=O)c1ccc(-c2cccc(C(=O)OC(C)C)n2)cc1` [Example 97], the 50% inhibitory concentration (IC50) was 20 µM.

Regarding `C#CCOC(=O)c1csc(-c2ccc(OCC)cc2)n1` [Example 149, Prop-2-yn-1-yl 2-(4-ethoxyphenyl)thiazole-4-carboxylate], the IC50 turned out to be 3 µM.

For the compound `CCC/C=C/COC(=O)c1csc(-c2ccc(OCC)cc2)n1` [Example 155, (E)-Hex-2-en-1-yl 2-(4-ethoxyphenyl)thiazole-4-carboxylate], the IC50 was determined as 15 µM.

Regarding `CCCCCCOC(=O)c1csc(-c2ccc(OCC)cc2)n1` [Example 156, Hexyl 2-(4-ethoxyphenyl)thiazole-4-carboxylate], the IC50 stood at 15 µM.

Consider `CCOc1ccc(-c2nc(C(=O)OCc3ccccc3)cs2)cc1` [Example 158, Benzyl 2-(4-ethoxyphenyl)thiazole-4-carboxylate], for which the IC50 amounted to 15 µM.

In the case of `CCOc1ccc(-c2nc(C(=O)OCc3ccncc3)cs2)cc1` [Example 159, Pyridin-4-ylmethyl 2-(4-ethoxyphenyl)thiazole-4-carboxylate], the half-inhibitory concentration (IC50) was found to be 20 µM.

As for `CCOc1ccc(-c2nc(C(=O)OCc3cccnc3)cs2)cc1` [Example 160, Pyridin-3-ylmethyl 2-(4-ethoxyphenyl)thiazole-4-carboxylate], the IC50 amounted to 15 µM.

In the case of `CCOC(=O)c1nc(-c2ccc(OCC)cc2)sc1Br` [Example 164, Ethyl 5-bromo-2-(4-ethoxyphenyl)thiazole-4-carboxylate], the IC50 was determined as 25 µM.

With `CCOC(=O)c1nc(-c2ccc(OCC)cc2)sc1I` [Example 165, Ethyl 2-(4-ethoxyphenyl)-5-iodothiazole-4-carboxylate], the IC50 came out at 5 µM.

Consider `CCOc1ccc(-c2nc(C(=O)OC(C)(C)C)c(N3CCCCC3)s2)cc1` [Example 167, tert-Butyl 2-(4-ethoxyphenyl)-5-(piperidin-1-yl)thiazole-4-carboxylate], for which the half-maximal inhibitory concentration (IC50) is 10 µM.

`CCOc1ccc(-c2nc(C(=O)OC(C)(C)C)c(C(C)=O)s2)cc1` [Example 171, tert-Butyl 5-acetyl-2-(4-ethoxyphenyl)thiazole-4-carboxylate]: the IC50 amounted to 5 µM.

On to `CCOC(=O)c1nc(-c2ccc(OCC)cc2)sc1C(C)=O` [Example 172, Ethyl 5-acetyl-2-(4-ethoxyphenyl)thiazole-4-carboxylate], for which the IC50 was determined as 20 µM.

As for `CCOc1ccc(-c2nc(C(=O)OC(C)(C)C)c(C(=O)C(C)C)s2)cc1` [Example 173, tert-Butyl 2-(4-ethoxyphenyl)-5-isobutyrylthiazole-4-carboxylate], the concentration for half-maximal inhibition (IC50) is 12 µM.

Turning to `CCOc1ccc(-c2nc(C(=O)OC(C)(C)C)c(C(=O)C3CC3)s2)cc1` [Example 174, tert-Butyl 5-(cyclopropanecarbonyl)-2-(4-ethoxyphenyl)thiazole-4-carboxylate], the IC50 was found to be 25 µM.

Staying with this test, now noted: values of text and figure legend; read-out: IC50 on human ATGL (hATGL).
On to `CCOC(=O)c1cn(-c2ccc(OCC)cc2)cn1` [AM-30, reference compound], for which the IC50 is at least 200 µM.

As for `CCOC(=O)c1cnc(-c2ccc(OCC)cc2)s1` [AM-52, reference compound], the IC50 is above 200 µM.

Turning to `CCOC(=O)c1cc(-c2ccc(OCC)cc2)no1` [AMU-4-245, reference compound], the 50% inhibitory concentration (IC50) is at least 200 µM.

`CCOC(=O)c1cc(-c2ccc(OCC)cc2)ns1` [AMU-27, reference compound]: the IC50 was at least 200 µM.

Source of the values: patent US20220289698A1, “INHIBITORS OF HUMAN ATGL” (Karl-Franzens-Universität Graz, priority 2019, published 2022).
